Assay results: the NIST ThermoML archive (doi:10.1021/je020131a)
“And” between values parts separate entries of the source, which are not always exact repeats. Equal entries are not always repeated.

Key:
[1] = Liquid; for viscosity: 101.3 kPa, Falling or rolling sphere viscometry; for mass density: 101.33 kPa, Vibrating tube method
[2] = xn = mol fraction of the nth substance listed; details: 101.3 kPa, Liquid, Falling or rolling sphere viscometry

COC(=O)OC [dimethyl carbonate]
[1]
Details | mass density [kg/m3] | viscosity [mPa·s]
293.15 K | – | 0.626
298.15 K | 1063.5 | 0.585
303.15 K | – | 0.536
313.15 K | – | 0.494

COC(=O)OC [dimethyl carbonate] + CCCCCCC
[2]
Details | viscosity [mPa·s]
293.15 K, x1 = 0.05 | 0.407
293.15 K, x1 = 0.094 | 0.405
293.15 K, x1 = 0.2039 | 0.407
293.15 K, x1 = 0.324 | 0.413
293.15 K, x1 = 0.4062 | 0.422
293.15 K, x1 = 0.5059 | 0.441
293.15 K, x1 = 0.6099 | 0.462
293.15 K, x1 = 0.6987 | 0.488
293.15 K, x1 = 0.8086 | 0.527
293.15 K, x1 = 0.9029 | 0.567
293.15 K, x1 = 0.9504 | 0.594
293.15 K, x1 = 1 | 0.626
298.15 K, x1 = 0.0594 | 0.383
298.15 K, x1 = 0.1204 | 0.384
298.15 K, x1 = 0.2132 | 0.385
298.15 K, x1 = 0.3135 | 0.388
298.15 K, x1 = 0.4018 | 0.397
298.15 K, x1 = 0.4716 | 0.406
298.15 K, x1 = 0.6051 | 0.43
298.15 K, x1 = 0.6946 | 0.452
298.15 K, x1 = 0.8031 | 0.489
298.15 K, x1 = 0.902 | 0.528
298.15 K, x1 = 0.9477 | 0.554
298.15 K, x1 = 1 | 0.585
303.15 K, x1 = 0.0586 | 0.37
303.15 K, x1 = 0.0873 | 0.367
303.15 K, x1 = 0.1996 | 0.368
303.15 K, x1 = 0.299 | 0.375
303.15 K, x1 = 0.4009 | 0.388
303.15 K, x1 = 0.5081 | 0.403
303.15 K, x1 = 0.6069 | 0.426
303.15 K, x1 = 0.6979 | 0.454
303.15 K, x1 = 0.8051 | 0.495
303.15 K, x1 = 0.9069 | 0.518
303.15 K, x1 = 0.9638 | 0.518
303.15 K, x1 = 1 | 0.536
313.15 K, x1 = 0.0649 | 0.33
313.15 K, x1 = 0.1157 | 0.328
313.15 K, x1 = 0.3432 | 0.334
313.15 K, x1 = 0.4378 | 0.341
313.15 K, x1 = 0.5458 | 0.355
313.15 K, x1 = 0.6259 | 0.37
313.15 K, x1 = 0.7191 | 0.393
313.15 K, x1 = 0.8128 | 0.416
313.15 K, x1 = 0.8798 | 0.443
313.15 K, x1 = 0.9536 | 0.475
313.15 K, x1 = 0.9822 | 0.485
313.15 K, x1 = 1 | 0.494

CCOC(=O)OCC [diethyl carbonate] + CCCCCCC
[2]
Details | viscosity [mPa·s]
293.15 K, x1 = 0.049 | 0.41
293.15 K, x1 = 0.0983 | 0.413
293.15 K, x1 = 0.1973 | 0.427
293.15 K, x1 = 0.297 | 0.449
293.15 K, x1 = 0.3989 | 0.477
293.15 K, x1 = 0.4952 | 0.508
293.15 K, x1 = 0.601 | 0.549
293.15 K, x1 = 0.7014 | 0.594
293.15 K, x1 = 0.8012 | 0.647
293.15 K, x1 = 0.8985 | 0.707
293.15 K, x1 = 0.9482 | 0.744
293.15 K, x1 = 1 | 0.795
298.15 K, x1 = 0.0509 | 0.39
298.15 K, x1 = 0.0977 | 0.394
298.15 K, x1 = 0.1973 | 0.41
298.15 K, x1 = 0.3052 | 0.43
298.15 K, x1 = 0.3949 | 0.453
298.15 K, x1 = 0.5028 | 0.486
298.15 K, x1 = 0.5924 | 0.516
298.15 K, x1 = 0.7096 | 0.565
298.15 K, x1 = 0.8054 | 0.612
298.15 K, x1 = 0.9028 | 0.673
298.15 K, x1 = 0.9495 | 0.709
298.15 K, x1 = 1 | 0.749
303.15 K, x1 = 0.0506 | 0.386
303.15 K, x1 = 0.1001 | 0.389
303.15 K, x1 = 0.1991 | 0.399
303.15 K, x1 = 0.301 | 0.416
303.15 K, x1 = 0.4058 | 0.438
303.15 K, x1 = 0.5006 | 0.464
303.15 K, x1 = 0.6133 | 0.501
303.15 K, x1 = 0.7037 | 0.539
303.15 K, x1 = 0.8029 | 0.584
303.15 K, x1 = 0.8988 | 0.637
303.15 K, x1 = 0.946 | 0.667
303.15 K, x1 = 1 | 0.699
313.15 K, x1 = 0.0493 | 0.337
313.15 K, x1 = 0.0986 | 0.344
313.15 K, x1 = 0.1975 | 0.362
313.15 K, x1 = 0.2962 | 0.381
313.15 K, x1 = 0.3992 | 0.403
313.15 K, x1 = 0.4943 | 0.426
313.15 K, x1 = 0.5992 | 0.456
313.15 K, x1 = 0.699 | 0.49
313.15 K, x1 = 0.8009 | 0.528
313.15 K, x1 = 0.8984 | 0.573
313.15 K, x1 = 0.9508 | 0.599
313.15 K, x1 = 1 | 0.623

CCCCCCC [heptane] + CCOC(=O)OCC
[2], x2 = 0
Details | viscosity [mPa·s]
293.15 K | 0.411
298.15 K | 0.388
303.15 K | 0.375
313.15 K | 0.334

COC(=O)OC [dimethyl carbonate] + CCCCCC
[2]
Details | viscosity [mPa·s]
293.15 K, x1 = 0.0722 | 0.312
293.15 K, x1 = 0.1448 | 0.315
293.15 K, x1 = 0.2286 | 0.325
293.15 K, x1 = 0.3026 | 0.338
293.15 K, x1 = 0.4102 | 0.359
293.15 K, x1 = 0.5062 | 0.384
293.15 K, x1 = 0.6026 | 0.412
293.15 K, x1 = 0.7052 | 0.451
293.15 K, x1 = 0.7974 | 0.494
293.15 K, x1 = 0.901 | 0.552
293.15 K, x1 = 0.9506 | 0.585
293.15 K, x1 = 1 | 0.626
298.15 K, x1 = 0.082 | 0.306
298.15 K, x1 = 0.1269 | 0.311
298.15 K, x1 = 0.2131 | 0.322
298.15 K, x1 = 0.3197 | 0.336
298.15 K, x1 = 0.3787 | 0.345
298.15 K, x1 = 0.4712 | 0.362
298.15 K, x1 = 0.5121 | 0.37
298.15 K, x1 = 0.6067 | 0.392
298.15 K, x1 = 0.6987 | 0.423
298.15 K, x1 = 0.842 | 0.487
298.15 K, x1 = 0.9248 | 0.53
298.15 K, x1 = 0.9615 | 0.555
298.15 K, x1 = 1 | 0.585
303.15 K, x1 = 0.0468 | 0.287
303.15 K, x1 = 0.0991 | 0.293
303.15 K, x1 = 0.1951 | 0.305
303.15 K, x1 = 0.295 | 0.314
303.15 K, x1 = 0.3832 | 0.327
303.15 K, x1 = 0.4865 | 0.342
303.15 K, x1 = 0.5899 | 0.363
303.15 K, x1 = 0.696 | 0.394
303.15 K, x1 = 0.7947 | 0.433
303.15 K, x1 = 0.8939 | 0.478
303.15 K, x1 = 0.9436 | 0.507
303.15 K, x1 = 1 | 0.536
313.15 K, x1 = 0.0495 | 0.267
313.15 K, x1 = 0.1 | 0.274
313.15 K, x1 = 0.2092 | 0.286
313.15 K, x1 = 0.3093 | 0.296
313.15 K, x1 = 0.4043 | 0.306
313.15 K, x1 = 0.4941 | 0.321
313.15 K, x1 = 0.6052 | 0.347
313.15 K, x1 = 0.7063 | 0.379
313.15 K, x1 = 0.8046 | 0.416
313.15 K, x1 = 0.9014 | 0.458
313.15 K, x1 = 0.9497 | 0.477
313.15 K, x1 = 1 | 0.494

CCOC(=O)OCC [diethyl carbonate] + C1CCCCC1
[2]
Details | viscosity [mPa·s]
293.15 K, x1 = 0.0501 | 0.906
293.15 K, x1 = 0.0992 | 0.85
293.15 K, x1 = 0.1969 | 0.78
293.15 K, x1 = 0.2923 | 0.741
293.15 K, x1 = 0.4023 | 0.72
293.15 K, x1 = 0.502 | 0.712
293.15 K, x1 = 0.5984 | 0.718
293.15 K, x1 = 0.6977 | 0.728
293.15 K, x1 = 0.808 | 0.742
293.15 K, x1 = 0.9037 | 0.761
293.15 K, x1 = 0.9511 | 0.776
293.15 K, x1 = 1 | 0.795
298.15 K, x1 = 0.0531 | 0.832
298.15 K, x1 = 0.094 | 0.792
298.15 K, x1 = 0.1931 | 0.725
298.15 K, x1 = 0.2865 | 0.691
298.15 K, x1 = 0.3821 | 0.676
298.15 K, x1 = 0.4802 | 0.674
298.15 K, x1 = 0.6454 | 0.685
298.15 K, x1 = 0.6801 | 0.689
298.15 K, x1 = 0.7828 | 0.701
298.15 K, x1 = 0.8852 | 0.719
298.15 K, x1 = 0.9177 | 0.726
298.15 K, x1 = 1 | 0.749
303.15 K, x1 = 0.0497 | 0.76
303.15 K, x1 = 0.1018 | 0.717
303.15 K, x1 = 0.1958 | 0.665
303.15 K, x1 = 0.293 | 0.637
303.15 K, x1 = 0.3922 | 0.628
303.15 K, x1 = 0.4767 | 0.626
303.15 K, x1 = 0.5943 | 0.635
303.15 K, x1 = 0.6778 | 0.643
303.15 K, x1 = 0.7897 | 0.657
303.15 K, x1 = 0.8649 | 0.671
303.15 K, x1 = 0.94 | 0.684
303.15 K, x1 = 1 | 0.699
313.15 K, x1 = 0.0511 | 0.659
313.15 K, x1 = 0.0983 | 0.632
313.15 K, x1 = 0.2003 | 0.594
313.15 K, x1 = 0.3002 | 0.572
313.15 K, x1 = 0.3963 | 0.56
313.15 K, x1 = 0.4953 | 0.563
313.15 K, x1 = 0.5914 | 0.568
313.15 K, x1 = 0.7001 | 0.576
313.15 K, x1 = 0.8098 | 0.589
313.15 K, x1 = 0.9014 | 0.603
313.15 K, x1 = 0.9494 | 0.613
313.15 K, x1 = 1 | 0.623

CCCCCCC [heptane]
[1]
Details | mass density [kg/m3] | viscosity
293.15 K | – | 0.411 mPa·s
298.15 K | 679.4 | 0.388 mPa·s
303.15 K | – | 0.37 mPa·s and 0.375 mPa·s
313.15 K | – | 0.334 mPa·s

CCCCCCC [heptane] + COC(=O)OC
[2], x2 = 0
Details | viscosity [mPa·s]
293.15 K | 0.411
298.15 K | 0.388
303.15 K | 0.37
313.15 K | 0.334

C1CCCCC1 [cyclohexane] + CCOC(=O)OCC
[2], x2 = 0
Details | viscosity [mPa·s]
293.15 K | 0.976
298.15 K | 0.894
303.15 K | 0.813
313.15 K | 0.697

CCOC(=O)OCC [diethyl carbonate]
[1]
Details | mass density [kg/m3] | viscosity [mPa·s]
293.15 K | – | 0.795
298.15 K | 969.1 | 0.749
303.15 K | – | 0.699
313.15 K | – | 0.623
